Reference: US8309550B2, “Kinase inhibitors and their use as pharmaceutical agents” (Shanghai Genomics, Inc., priority 2011, dated 2012)

Columns and labels:
CDK1/cyclinB = target: T1, CDK1/cyclinB (Homo sapiens, UniProt P06493); experiment: Z'-LYTE kinase assay CDK1/cyclinB; type: biochemical; conditions: read-out: Kinase inhibition, IC50 CDK1B
T1 construct: purchased Invitrogen PV3292
Procedure: (§1) Kinase assays. The compounds from the example above were tested for their ability to inhibit kinases. Recombinant human CDK2/cyclinA (PV3267), CDK1/cyclinB (PV3292), CDK5/p35 (PV3000) and Aurora A (PV3612) were purchased from Invitrogen (Carlsbad, Calif., USA). Kinase dosage and Z′-LYTE™ substrate for each kinase assay is as follows: CDK2/cyclinA-8 ng/reaction, Ser/Thr 12 Peptide; CDK1/cyclinB-0.8 ng/reaction, Ser/Thr 12 Peptide, CDK5/p35-0.8 ng/reaction, Ser/Thr 12 Peptide, and Aurora A-16 ng/reaction, Ser/Thr 1 Peptide. All enzymatic assays were performed using Z′-LYTE™ Kinase Assay Kits and were carried out following protocols provided by Invitrogen. To prepare stock solutions, compounds were dissolved at 10 mM in 100% DMSO and stored at 4° C. in amber glass vials. Enzyme reactions were initiated by adding recombinant enzyme and Z′-LYTE™ Ser/Thr peptide substrate and ATP mixture to 384-well plates containing diluted test compounds. Kinase and corresponding peptide substrate were incubated for 1 hr at room temperature in the presence of varying amounts of test compound with reaction buffer (20 μM ATP, […] [pH 7.5], 5 mM MgCl2, 0.5 mM EGTA, 0.005% Brij-35). Development buffer was added and incubated for another one hour at room temperature. Reactions were terminated by addition of stop buffer, and fluorescence emission intensity ratio 445 nm/520 nm (excited at 400 nm) was quantified by VICTOR-3 Multilabel Reader (Perkin-Elmer, Waltham, Mass., USA). Phosphorylation was calculated from the emission ratio. IC50 was determined using Sigmoid curve-fitting software Origin 6.0 (MicroCal, LLC, Northampton, Mass., USA).

CDK2/cyclinA = target: T2, CDK2/cyclinA (Homo sapiens, UniProt P24941); experiment: Z'-LYTE kinase assay CDK2/cyclinA; type: biochemical; conditions: read-out: Kinase inhibition, IC50 CDK2A
T2 construct: purchased Invitrogen PV3267
Procedure: as §1

CDK5/p35 = target: T3, CDK5/p35 (Homo sapiens, UniProt Q00535); experiment: Z'-LYTE kinase assay CDK5/p35; type: biochemical; conditions: read-out: Kinase inhibition, IC50 CDK5/p35
T3 construct: purchased Invitrogen PV3000
Procedure: as §1

CDK9T1 = CDK9T1 (Homo sapiens, UniProt P50750); experiment: Kinase assay CDK9T1 (Table I); type: biochemical; conditions: read-out: Kinase inhibition, IC50 CDK9T1
Procedure: [The source words this procedure for another target and reports this target under the same test.] as §1

Aurora A = target: T4, Aurora A (Homo sapiens, UniProt O14965); experiment: Z'-LYTE kinase assay Aurora A; type: biochemical; conditions: read-out: Kinase inhibition, IC50 Aurora A
T4 construct: purchased Invitrogen PV3612
T4 sequence (O14965 1-403): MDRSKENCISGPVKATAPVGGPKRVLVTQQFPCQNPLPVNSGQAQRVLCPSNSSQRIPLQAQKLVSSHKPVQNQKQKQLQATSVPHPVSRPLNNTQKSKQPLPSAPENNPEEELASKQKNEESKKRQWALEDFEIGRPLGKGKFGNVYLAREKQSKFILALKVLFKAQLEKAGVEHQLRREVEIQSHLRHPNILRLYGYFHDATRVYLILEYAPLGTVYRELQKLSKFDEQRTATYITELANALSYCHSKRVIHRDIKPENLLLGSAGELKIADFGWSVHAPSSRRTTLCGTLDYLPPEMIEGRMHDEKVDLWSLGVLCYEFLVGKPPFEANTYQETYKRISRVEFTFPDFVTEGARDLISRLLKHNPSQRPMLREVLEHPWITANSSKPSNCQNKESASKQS
Procedure: as §1

Aurora B = Aurora B (Homo sapiens, UniProt Q96GD4); experiment: Kinase assay Aurora B (Table I); type: biochemical; conditions: read-out: Kinase inhibition, IC50 Aurora B
Procedure: [The source words this procedure for another target and reports this target under the same test.] as §1

HeLa cells = experiment: 72 h MTT cytotoxicity assay HeLa; type: cell-based; conditions: Homo sapiens
From the text: (§2) MIT cytotoxicity assay. The compounds of the invention were subjected to a standard cellular proliferation assay using human cell lines. HeLa cells (Human cervix adenocarcinoma cell line, ATCC NO, CCL-2); A549 cells (Human lung carcinoma cells line, ATCC NO, CCL-185); U2OS cells (Human osteosarcoma cell line, ATCC NO, HTB-96); Eca-109 cells (Human esophageal carcinoma cell line); HepG2 (Human hepatocellular liver carcinoma cell line, ATCC NO, HB-8065); K562 cells (Human chronic myelogenous leukemia cell line, ATCC NO, CCL-243); SK-MEL-28 (Human malignant melanoma cell line, ATCC NO, HTB-72); Molt-4 (Human acute lymphoblastic leukemia cell line, ATCC NO, CRL-1582); H460 (Human large cell lung cancer cell line, ATCC NO, HTB-177); MDA-MB-231 (Human breast adenocarcinoma cell line, ATCC NO, HTB-26); MCF7 (Human breast adenocarcinoma cell line, ATCC NO, HTB-22); ACHN (Human renal cell adenocarcinoma cell line, ATCC NO, CRL-1611); PC-3M (Human prostate adenocarcinoma cell line, ATCC NO CRL-1435); HL60 (Human acute promyelocytic leukemia cell line, ATCC NO, CCL-240); THP-1 (Human acute monocytic leukemia, ATCC NO, TIB-202); Jurkat (Human acute T cell leukemia cell line, ATCC NO, CRL-2063); HCT-116 (Human colorectal carcinoma cell line, ATCC NO, CCL-247); HT-29 (Human colorectal adenocarcinoma cell line, ATCC NO, HTB-38™); WI-38 (Human normal lung cell line, ATCC NO, CCL-75); MRC-5 (Human normal lung cell line, ATCC NO, CCL-171).
(§3) HepG2, MDA-MB-231, WI-38 and MRC-5 cells were obtained from Shanghai Institute of Cell Biology, Chinese Academy of Sciences (Shanghai 200031, China). A549, HeLa, K562, MCF7, ACHN, H460, U2OS, Eca-109, MCF7, HL60, THP-1, Jurkat, HCT-116, HT-29, PC-3M, SK-MEL-28, Molt-4, H460 and […] cells were purchased from ATCC (American Type Culture Collection, USA).
(§4) Standard 72 h MTT (thiazolye blue; 3-[4,5-dimethylthiazol-2-yl]-2,5-diphenyltetrazolium bromide) assays were performed. Briefly, the cell lines used in this study were recovered and cultured according to the conditions recommended. 4000 cells per well were seeded into 96-well plates according to doubling time and incubated overnight at 37° C. Compounds were prepared in DMSO and a ½ dilution series in 100 μl cell culture media, added to cells (in duplicates) with the final DMSO concentration of 0.025%, and incubated for 72 hrs at 37° C. MTT solution (5 mg/ml) was added at 10 μl per well and incubated in the dark at 37° C. for 4 hr. Culture medium and MTT solution was removed. MTT dye was solubilised with 100 μl per well of DMSO with agitation. Absorbance was read at 562 nm and data analyzed using Sigmoid curve-fitting software Origin 6.0 (MicroCal, LLC, USA) to determine IC50 value.

A549 cells = experiment: 72 h MTT cytotoxicity assay A549; type: cell-based; conditions: Homo sapiens; A549, 72 hrs
From the text: as §2, §3, §4

U2OS cells = experiment: 72 h MTT cytotoxicity assay U2OS; type: cell-based; conditions: Homo sapiens
From the text: as §2, §3, §4

Eca-109 cells = experiment: 72 h MTT cytotoxicity assay Eca-109; type: cell-based; conditions: Homo sapiens; Eca-109, 72 hrs
From the text: as §2, §3, §4

HepG2 = experiment: 72 h MTT cytotoxicity assay HepG2; type: cell-based; conditions: Homo sapiens; HepG2, 72 hrs
From the text: as §2, §3, §4

K562 cells = experiment: 72 h MTT cytotoxicity assay K562; type: cell-based; conditions: Homo sapiens; K562, 72 hrs
From the text: as §2, §3, §4

MCF7 = experiment: 72 h MTT cytotoxicity assay MCF7; type: cell-based; conditions: Homo sapiens; MCF7, 72 hrs
From the text: as §2, §3, §4

SK-MEL-28-luc = experiment: 72 h MTT cytotoxicity assay SK-MEL-28-luc; type: cell-based; conditions: Homo sapiens
From the text: as §2, §3, §4

Molt-4-luc = experiment: 72 h MTT cytotoxicity assay Molt-4-luc; type: cell-based; conditions: Homo sapiens
From the text: as §2, §3, §4

H460-luc = experiment: 72 h MTT cytotoxicity assay H460-luc; type: cell-based; conditions: Homo sapiens, NCI-H460-Luc; H460-luc, 72 hrs; read-out: Cytotoxicity, MTT 72 hrs, IC50 H460-luc
From the text: as §2, §3, §4

MDA-MB-231-luc = experiment: 72 h MTT cell viability MDA-MB-231-luc; type: cell-based; conditions: Homo sapiens
From the text: as §2, §3, §4

ACHN-luc = experiment: 72 h MTT cell viability ACHN-luc; type: cell-based; conditions: Homo sapiens
From the text: as §2, §3, §4

WI-38 = experiment: 72 h MTT cell viability WI-38 (normal lung); type: cell-based; conditions: Homo sapiens; WI-38, normal lung cell line
From the text: as §2, §3, §4

Chain of Aurora B (Q96GD4 whole entry): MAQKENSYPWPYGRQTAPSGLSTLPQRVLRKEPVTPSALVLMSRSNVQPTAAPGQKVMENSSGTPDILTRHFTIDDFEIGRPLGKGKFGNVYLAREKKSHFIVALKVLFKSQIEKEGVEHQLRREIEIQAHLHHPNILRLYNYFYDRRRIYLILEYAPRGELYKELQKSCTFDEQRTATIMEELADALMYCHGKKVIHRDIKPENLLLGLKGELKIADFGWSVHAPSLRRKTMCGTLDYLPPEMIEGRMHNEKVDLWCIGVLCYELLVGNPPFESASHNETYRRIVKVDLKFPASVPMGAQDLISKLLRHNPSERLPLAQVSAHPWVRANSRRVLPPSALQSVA
T3 sequence (Q00535 whole entry): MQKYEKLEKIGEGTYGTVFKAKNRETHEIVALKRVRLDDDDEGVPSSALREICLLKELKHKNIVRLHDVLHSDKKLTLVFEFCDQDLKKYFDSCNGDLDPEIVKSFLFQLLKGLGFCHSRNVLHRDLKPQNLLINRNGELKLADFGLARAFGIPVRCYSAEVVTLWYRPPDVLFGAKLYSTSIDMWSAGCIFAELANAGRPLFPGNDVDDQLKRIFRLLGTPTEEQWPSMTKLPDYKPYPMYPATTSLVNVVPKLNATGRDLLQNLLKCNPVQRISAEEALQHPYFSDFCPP
T3 sequence (Q15078 whole entry partner): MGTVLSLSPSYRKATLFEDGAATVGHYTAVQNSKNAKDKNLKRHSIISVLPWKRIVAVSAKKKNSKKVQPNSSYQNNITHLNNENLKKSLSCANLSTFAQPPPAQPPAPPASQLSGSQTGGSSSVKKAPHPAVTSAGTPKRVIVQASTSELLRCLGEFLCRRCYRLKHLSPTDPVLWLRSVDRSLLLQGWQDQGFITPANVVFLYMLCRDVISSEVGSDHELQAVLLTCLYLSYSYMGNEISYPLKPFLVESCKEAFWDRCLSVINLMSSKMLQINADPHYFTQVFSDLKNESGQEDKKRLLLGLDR
T1 sequence (P06493 whole entry): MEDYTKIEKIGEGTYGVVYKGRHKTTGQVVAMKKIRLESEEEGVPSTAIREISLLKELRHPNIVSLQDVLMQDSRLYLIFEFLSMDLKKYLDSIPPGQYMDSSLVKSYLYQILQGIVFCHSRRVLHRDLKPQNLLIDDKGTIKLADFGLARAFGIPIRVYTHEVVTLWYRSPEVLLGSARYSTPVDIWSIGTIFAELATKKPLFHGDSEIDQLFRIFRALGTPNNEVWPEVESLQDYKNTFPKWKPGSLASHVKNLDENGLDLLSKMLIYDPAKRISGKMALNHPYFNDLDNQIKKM
T1 sequence (P14635 whole entry partner): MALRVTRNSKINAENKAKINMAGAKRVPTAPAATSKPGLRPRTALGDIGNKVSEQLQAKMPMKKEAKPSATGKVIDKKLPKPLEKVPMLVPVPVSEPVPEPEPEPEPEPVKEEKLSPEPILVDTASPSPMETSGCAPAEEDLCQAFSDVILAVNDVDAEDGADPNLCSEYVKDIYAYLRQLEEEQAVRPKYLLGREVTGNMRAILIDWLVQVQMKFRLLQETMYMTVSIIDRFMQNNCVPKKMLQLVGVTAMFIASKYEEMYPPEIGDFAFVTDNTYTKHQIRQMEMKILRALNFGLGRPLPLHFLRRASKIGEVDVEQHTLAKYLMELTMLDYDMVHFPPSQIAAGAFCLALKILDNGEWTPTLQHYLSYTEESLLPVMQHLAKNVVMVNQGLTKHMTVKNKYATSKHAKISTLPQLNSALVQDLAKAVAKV
Chain of CDK9T1 (P50750 whole entry): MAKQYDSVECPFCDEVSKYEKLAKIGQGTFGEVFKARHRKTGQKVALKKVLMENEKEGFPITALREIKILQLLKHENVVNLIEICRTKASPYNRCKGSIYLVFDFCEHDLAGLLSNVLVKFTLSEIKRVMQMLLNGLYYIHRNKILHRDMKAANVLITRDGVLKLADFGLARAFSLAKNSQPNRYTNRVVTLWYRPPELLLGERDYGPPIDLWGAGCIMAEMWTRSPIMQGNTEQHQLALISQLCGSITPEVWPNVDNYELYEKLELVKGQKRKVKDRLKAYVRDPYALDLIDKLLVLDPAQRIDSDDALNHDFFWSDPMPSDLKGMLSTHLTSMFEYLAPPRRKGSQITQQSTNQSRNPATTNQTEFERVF
Chain of CDK9T1 (O60563 whole entry partner): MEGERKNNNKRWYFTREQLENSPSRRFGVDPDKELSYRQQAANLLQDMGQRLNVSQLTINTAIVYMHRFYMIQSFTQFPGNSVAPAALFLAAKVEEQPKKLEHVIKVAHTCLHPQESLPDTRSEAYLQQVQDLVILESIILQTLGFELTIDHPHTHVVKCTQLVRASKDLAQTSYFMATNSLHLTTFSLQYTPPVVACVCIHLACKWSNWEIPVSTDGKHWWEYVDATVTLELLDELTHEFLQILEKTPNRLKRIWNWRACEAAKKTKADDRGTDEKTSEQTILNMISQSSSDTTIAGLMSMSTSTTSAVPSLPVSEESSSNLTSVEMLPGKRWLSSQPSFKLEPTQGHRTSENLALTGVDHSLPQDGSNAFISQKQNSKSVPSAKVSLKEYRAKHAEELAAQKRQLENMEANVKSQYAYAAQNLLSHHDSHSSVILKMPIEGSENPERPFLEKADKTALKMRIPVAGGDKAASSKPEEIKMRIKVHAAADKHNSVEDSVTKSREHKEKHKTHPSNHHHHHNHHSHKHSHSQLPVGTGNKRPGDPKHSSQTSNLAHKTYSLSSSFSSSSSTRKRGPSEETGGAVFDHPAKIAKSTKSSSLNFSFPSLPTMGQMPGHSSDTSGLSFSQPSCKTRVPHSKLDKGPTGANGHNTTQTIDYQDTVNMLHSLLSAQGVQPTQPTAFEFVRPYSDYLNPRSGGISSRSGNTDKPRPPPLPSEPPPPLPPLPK

Compound: CCn1cc(-c2ccnc(Nc3cccc(C(N)=O)c3)n2)c2cccnc21 [Compound 19, 3-(4-(1-Ethyl-1H-pyrrolo[2,3-b]pyridin-3-yl)pyrimidin-2-ylamino)benzamide]
- IC50 (CDK1/cyclinB): 1.34 µM
- IC50 (CDK2/cyclinA): 0.272 µM
- IC50 (CDK5/p35): 3.18 µM
- IC50 (CDK9T1): 0.11 µM
- IC50 (Aurora A): 0.29 µM
- IC50 (Aurora B): 1.44 µM
- IC50 (HeLa cells): 4.33 µM
- IC50 (A549 cells): 3.43 µM
- IC50 (U2OS cells): 9.54 µM
- IC50 (Eca-109 cells): > 10 µM
- IC50 (HepG2): 1.41 µM
- IC50 (K562 cells): 15.4 µM
- IC50 (MCF7): 3.96 µM
- IC50 (SK-MEL-28-luc): > 10 µM
- IC50 (Molt-4-luc): 6.66 µM
- IC50 (H460-luc): 3.63 µM
- IC50 (MDA-MB-231-luc): 8.51 µM
- IC50 (ACHN-luc): 3.46 µM
- IC50 (WI-38): > 10 µM

Compound: Cn1cc(-c2ccnc(Nc3cccc(O)c3)n2)c2ccccc21 [Compound 1, 3-(4-(1-Methyl-1H-indol-3-yl)pyrimidin-2-ylamino)phenol]
- IC50 (CDK1/cyclinB): 2.5 µM
- IC50 (CDK2/cyclinA): 0.543 µM
- IC50 (CDK5/p35): 2.61 µM
- IC50 (Aurora A): 0.28 µM
- IC50 (Aurora B): 0.34 µM
- IC50 (HeLa cells): 4.7 µM
- IC50 (A549 cells): 6.03 µM
- IC50 (U2OS cells): 5.99 µM
- IC50 (Eca-109 cells): 14.2 µM
- IC50 (HepG2): 4.55 µM
- IC50 (K562 cells): 4.78 µM
- IC50 (MCF7): 10.1 µM
- IC50 (SK-MEL-28-luc): 6.47 µM
- IC50 (Molt-4-luc): 6.4 µM
- IC50 (H460-luc): 6.19 µM
- IC50 (MDA-MB-231-luc): 6.33 µM
- IC50 (ACHN-luc): 9.82 µM
- IC50 (WI-38): > 10 µM

Compound: CCCn1cc(-c2ccnc(Nc3cccc([N+](=O)[O-])c3)n2)c2cccnc21 [Compound 17, N-(3-Nitrophenyl)-4-(1-propyl-1H-pyrrolo[2,3-b]pyridin-3-yl)pyrimidin-2-amine]
- IC50 (CDK1/cyclinB): 7.64 µM
- IC50 (CDK2/cyclinA): 0.463 µM
- IC50 (CDK5/p35): > 10 µM
- IC50 (CDK9T1): 0.16 µM
- IC50 (Aurora A): 1.16 µM
- IC50 (Aurora B): > 10 µM
- IC50 (HeLa cells): 4.22 µM
- IC50 (A549 cells): 2.19 µM
- IC50 (U2OS cells): 4.91 µM
- IC50 (Eca-109 cells): 6.06 µM
- IC50 (HepG2): 1.19 µM
- IC50 (K562 cells): 2.31 µM
- IC50 (MCF7): 4.93 µM
- IC50 (SK-MEL-28-luc): 5.48 µM
- IC50 (Molt-4-luc): 6.29 µM
- IC50 (H460-luc): 2.49 µM
- IC50 (MDA-MB-231-luc): 2.63 µM
- IC50 (ACHN-luc): 2.45 µM
- IC50 (WI-38): > 10 µM
